Experimental data from patent US10039776B2, “Hepato-protective beverage composition” (priority 2013, dated 2018).

Assays:
[1] = system: Male Wistar albino rats, alcohol induced sub-acute hepatotoxicity; assay: Alcohol induced sub-acute hepatotoxicity in rats: evaluation of hepato-protective activity (% protection, % synergism); type: in vivo
From the text: • 1. Hepato-protection: the ability to reduce stress and prevent damage to the liver. • 2. Synergistic hepato-protective effect: where the net hepato-protective effect of a combination is greater than the sum of the hepato-protective effects of the parts. • 3. Primary hepato-protective agent; 18α-Glycyrrhizin, 18β-Glycyrrhizin, or a combination thereof. • 4. Complimentary hepato-protective agent: sugar, sugar alcohol, or a combination thereof. • 5. Effective amount: the amount of each hepato-protective agent that must be included in a beverage to result in a net hepato-protective synergistic effect. Effective amounts include: • a. For 18α-Glycyrrhizin, a mass concentration range of 0.04% to 1.0%. • b. For 18β-Glycyrrhizin, a mass concentration range of 0.04% to 1.0%. • c. For sugar, a mass concentration range of 0.5% to 3.5%. • d. For sugar alcohol, a mass concentration range of 0.5% to 3.5%. • 6. Effective proportion: the proportional amount of how many units of complimentary hepato-protective agent should be added per unit of primary hepato-protective agent to result in a hepato-protective synergistic effect. An effective proportion is in the range of 1:2 to 175:2 (units of complimentary hepato-protective agent to units of primary hepato-protective agent). […] All animal experiments were conducted for a period of one month by per oral administration of 2.5 g/kg dose of alcohol.
The following tables 10 and 11 further illustrate hepatoprotective activity of the supplied alcoholic formulations in comparison with standard alcoholic drink in rat model, when fed orally for 4 weeks and also illustrate any synergistic effect of the ingredients. Hepatoprotection (HP) Calculation % Protection=1−[(T-NS)/(AL-NS)]×100 T=Mean value of drug treated, NS=Mean value of normal control, AL=Mean value of alcohol alone
Distilled ethanol was obtained from Bengal Chemicals, West Bengal, India, Biochemical kits like AST, ALT, ALKP and total protein were obtained from Span Diagnostics Ltd. Surat, India. Time course study of oxidative and nitrosative stress and antioxidant enzymes in K2Cr2O7-induced nephrotoxicity. BMC Nephrol., 6:4], TNF-α was estimated by standard procedures as mentioned in Rat TNF-α ELIS A kit (BioLegend, Inc. San Diego, Calif. USA).
Male Wistar albino rats weighing 150-200 g are procured from local registered traders (CPCSEA Regd No. 1443/po/6/4/CPCSEA), Kolkata, India, and were acclimatized for 7 days at standard housing condition (26° C.±2° C., 60-70% RFT with 12±1 hours light and dark cycle). Animals were fed with commercially available diet (Upton India Pvt. Ltd, India) and water ad-libitum during the experiment period.
Male Wistar albino rats weighing 150-200 g are procured and randomly divided into groups consisting of six animals in each group. Sub-acute toxicity is induced by alcohol in rats by oral administration of 25% alcohol (2.5 gm/kg/day, p.o.) for 28 days and this group served as the negative control and the positive control group received distilled water only.
All drug solutions were prepared in 15-40% aqueous alcohol, adjusting the pH in the range of 4.0-9.0 for evaluation of hepato-protective activity. This solution is further diluted with distilled water to obtain 25% aqueous alcoholic solution and administered orally by gavage to different rats group of step (a).
On day 28th day the animals are anaesthetized with ether and blood samples are collected by cardiac puncture and the serum is used for the assay of marker enzymes serum alanine aminotransferase (ALT), aspartate aminotransferase (AS′T), alkaline phosphatase (ALP). The rats are sacrificed by exposure to an overdose of ether, immediately after the collection of blood; their livers are removed, washed in cold saline. Part of the liver is used for preparation of liver homogenate in phosphate buffer (pH 7.4). […]

[2] = system: superoxide dismutase (SOD); conditions: erythritol-added group; cited from earlier work
[3] = cited from earlier work
[4] = sugar alcohol or sugar alone at 1%, alcohol 2.5 g/kg p.o. one month
[5] = sugar alcohol or sugar alone at 2.5%, alcohol 2.5 g/kg p.o. one month

| Molecule | ALT etc % Prot. [1, 4] | GSH % Prot. [1, 4] | MDA % Prot. [1, 4] | SOD etc % Prot. [1, 4] | TNF-α % Prot. [1, 4] | ALT etc % Prot. [1, 5] | GSH % Prot. [1, 5] | MDA % Prot. [1, 5] | SOD etc % Prot. [1, 5] | TNF-α % Prot. [1, 5] | other results |
| --- | --- | --- | --- | --- | --- | --- | --- | --- | --- | --- | --- |
| 18β-Glycyrrhizin [Sample Code D] |  |  |  |  |  |  |  |  |  |  | TNF-α % Prot. ([1]; alcohol 2.5 g/kg/day p.o. 28 days, composition fixed by sample/example, listed as Example 4): 7.64%; GSH % Prot. ([1]; alcohol 2.5 g/kg/day p.o. 28 days, liver homogenate, composition fixed by sample/example, listed as Example 4): 3.29%; MDA % Prot. ([1]; hepatic MDA, alcohol 2.5 g/kg/day p.o. 28 days, composition fixed by sample/example, listed as Example 4): 15.97%; SOD etc % Prot. ([1]; mean of SOD, CAT and GPx, alcohol 2.5 g/kg/day p.o. 28 days, composition fixed by sample/example, listed as Example 4): 11.45%; ALT etc % Prot. ([1]; mean of serum ALT, AST and ALKP, alcohol 2.5 g/kg/day p.o. 28 days, composition fixed by sample/example, listed as Example 4): 8.38% |
| OC[C@@H](O)[C@@H](O)CO [Ery, D-Erythritol] | 17.84% | 18.71% | 24.71% | 17.94% | 16.57% | 32.13% | 37.29% | 48.61% | 36.29% | 35.96% |  |
| OC[C@H]1O[C@@H](O[C@H]2[C@H](O)[C@@H](O)C(O)O[C@@H]2CO)[C@H](O)[C@@H](O)[C@H]1O (stereo partly drawn) [Lac, Lactose] | 8.21% | 4.36% | 7.70% | 6.78% | 8.19% | 17.41% |  | 21.47% | 17.38% | 15.26% |  |
| OC[C@@H](O)[C@@H](O)[C@H](O)[C@H](O)CO [Sample Code A, D-Mannitol] |  |  |  |  |  |  |  |  |  |  | TNF-α % Prot. ([1]; alcohol 2.5 g/kg/day p.o. 28 days, composition fixed by sample/example, listed as Example 2): 7.19%; GSH % Prot. ([1]; alcohol 2.5 g/kg/day p.o. 28 days, liver homogenate, composition fixed by sample/example, listed as Example 2): 10.35%; MDA % Prot. ([1]; hepatic MDA, alcohol 2.5 g/kg/day p.o. 28 days, composition fixed by sample/example, listed as Example 2): 19.17%; SOD etc % Prot. ([1]; mean of SOD, CAT and GPx, alcohol 2.5 g/kg/day p.o. 28 days, composition fixed by sample/example, listed as Example 2): 12.71%; ALT etc % Prot. ([1]; mean of serum ALT, AST and ALKP, alcohol 2.5 g/kg/day p.o. 28 days, composition fixed by sample/example, listed as Example 2): 12.26% |
| OC[C@@H](O)[C@@H](O)[C@H](O)[C@H](O)CO [Sample Code C, D-Mannitol] |  |  |  |  |  |  |  |  |  |  | TNF-α % Prot. ([1]; alcohol 2.5 g/kg/day p.o. 28 days, composition fixed by sample/example, listed as 3): 16.74%; TNF-α % Prot. ([1]; alcohol 2.5 g/kg/day p.o. 28 days, composition fixed by sample/example, listed as Example 3): 31.46%; GSH % Prot. ([1]; alcohol 2.5 g/kg/day p.o. 28 days, liver homogenate, composition fixed by sample/example, listed as 3): 20.06%; GSH % Prot. ([1]; alcohol 2.5 g/kg/day p.o. 28 days, liver homogenate, composition fixed by sample/example, listed as Example 3): 31.53%; MDA % Prot. ([1]; hepatic MDA, alcohol 2.5 g/kg/day p.o. 28 days, composition fixed by sample/example, listed as 3): 31.63%; MDA % Prot. ([1]; hepatic MDA, alcohol 2.5 g/kg/day p.o. 28 days, composition fixed by sample/example, listed as Example 3): 50.80%; SOD etc % Prot. ([1]; mean of SOD, CAT and GPx, alcohol 2.5 g/kg/day p.o. 28 days, composition fixed by sample/example, listed as 3): 19.32%; SOD etc % Prot. ([1]; mean of SOD, CAT and GPx, alcohol 2.5 g/kg/day p.o. 28 days, composition fixed by sample/example, listed as Example 3): 35.83%; ALT etc % Prot. ([1]; mean of serum ALT, AST and ALKP, alcohol 2.5 g/kg/day p.o. 28 days, composition fixed by sample/example, listed as 3): 70.37%; ALT etc % Prot. ([1]; mean of serum ALT, AST and ALKP, alcohol 2.5 g/kg/day p.o. 28 days, composition fixed by sample/example, listed as Example 3): 29.71% |
| OC[C@H]1O[C@@](CO)(O[C@H]2O[C@H](CO)[C@@H](O)[C@H](O)[C@H]2O)[C@@H](O)[C@@H]1O [Suc, Sucrose] | 6.70% | 6% | 8.27% | 5.16% | 6.13% | 13.89% | 11.63% | 18.92% | 10.49% | 14.18% |  |
| OC[C@@H](O)[C@H](O)[C@@H](O)CO [Xyl, D-Xylitol] | 17.62% | 19.76% | 26.9% | 18.91% | 15.77% | 26.72% | 35.57% | 45.38% | 36.88% | 30.05% |  |
| O=C[C@H](O)[C@@H](O)[C@H](O)CO [Xyls, Xylose] | 8.06% | 6.23% | 6.28% | 7.83% | 6.44% | 14.73% | 11.84% | 15.38% | 19.1% | 13.98% |  |
| OC[C@@H](O)[C@@H](O)CO [erythritol] |  |  |  |  |  |  |  |  |  |  | increase of SOD activity [2]: 2-5 times |
| CCO [ethanol] |  |  |  |  |  |  |  |  |  |  | time to peak blood alcohol concentration ([3]; fasting state): ≤ 30 min; ingested alcohol degraded to acetaldehyde ([3]; human being): 95%; ingested alcohol excreted unchanged ([3]; human being): 5%; share of alcohol metabolism accounted for by liver ([3]; in vivo): ~90%; alcohol metabolized per hour ([3]; typical adult, printed 'g of alcohol, hour'): 7 to 10 g |
